The values that follow come from article PMC4931907 (eLife, 2016).

One data set deals with Kasumi-1 cells. Kind of data set: Kasumi-1 xenograft model in SCID mice. It is filed as in vivo. Here is the method:
Figure 5. […] (A) and (B) Plots of tumor volume (A) and body weight (B). (C) and (D) Tumor size (C) and body weight (D) at sacrifice after 3 weeks of treatment. DOI: http://dx.doi.org/10.7554/eLife.11156.012
Severe combined immunodeficiency (SCID) mice were injected with 30 million Kasumi-1 cells in 100 μl of PBS and 100 μl of Matrigel. […] Tumor volume and body weight were recorded every 2 days. After 3 weeks of treatment, the mice were killed and tumor size and body weight were recorded. All mice were maintained according to National Institutes of Health guidelines and all animal use protocols were approved by the Institutional Animal Care and Use Committee.

The next data set concerns the target T1, PCAF (Homo sapiens, UniProt Q92831).
T1 construct: purchased Enzo Life Sciences
Kind of data set: In vitro HAT assay with recombinant PCAF, histones and 14C acetyl-CoA. Type of data set: biochemical. Here is the method: (§1) To determine whether salicylate inhibits p300 and other acetyltransferases, we used in vitro acetylation assays with purified histones and a recombinant p300 catalytic domain.
(§2) Figure 1. Salicylate inhibits CBP/p300 in vitro. (A) Recombinant p300, CBP, GCN5, or PCAF and histones were incubated with ^14C-labeled acetyl-CoA with or without sodium salicylate, separated by SDS-PAGE, analyzed by autoradiography, and quantified with Image J software. Acetylation levels are relative to those in untreated controls. (B) Thermal stability assay for sodium salicylate binding to the p300 HAT domain. Tm, melting temperature. […] Histone acetylation was measured with several concentrations of acetyl-CoA (C) or histone (D) in the presence or absence of sodium salicylate. […] Acetylation of an H4(3–14) peptide was monitored using direct microfluidic mobility shift analysis as previously described ([Montgomery et al., 2014]; [Fanslau et al., 2010]). […]
(§3) Recombinant HAT ([…]), either p300, CBP, PCAF, or GCN5 (Enzo Life Sciences), and 10 µg of histones (Sigma) were incubated with sodium salicylate (Sigma) in reaction buffer (50 mM HEPES, pH 8.0, 10% glycerol, 1 mM) at 30°C for 30 min and then with 0.1 mCi of ^14C acetyl-CoA at 30°C for 60 min. Reactions were stopped by adding 6x sample buffer and analyzed by SDS-PAGE. […]

The target in another data set is T2, GCN5 (Homo sapiens, UniProt Q92830).
T2 construct: purchased Enzo Life Sciences
T2 sequence (Q92830 whole entry, species assumed): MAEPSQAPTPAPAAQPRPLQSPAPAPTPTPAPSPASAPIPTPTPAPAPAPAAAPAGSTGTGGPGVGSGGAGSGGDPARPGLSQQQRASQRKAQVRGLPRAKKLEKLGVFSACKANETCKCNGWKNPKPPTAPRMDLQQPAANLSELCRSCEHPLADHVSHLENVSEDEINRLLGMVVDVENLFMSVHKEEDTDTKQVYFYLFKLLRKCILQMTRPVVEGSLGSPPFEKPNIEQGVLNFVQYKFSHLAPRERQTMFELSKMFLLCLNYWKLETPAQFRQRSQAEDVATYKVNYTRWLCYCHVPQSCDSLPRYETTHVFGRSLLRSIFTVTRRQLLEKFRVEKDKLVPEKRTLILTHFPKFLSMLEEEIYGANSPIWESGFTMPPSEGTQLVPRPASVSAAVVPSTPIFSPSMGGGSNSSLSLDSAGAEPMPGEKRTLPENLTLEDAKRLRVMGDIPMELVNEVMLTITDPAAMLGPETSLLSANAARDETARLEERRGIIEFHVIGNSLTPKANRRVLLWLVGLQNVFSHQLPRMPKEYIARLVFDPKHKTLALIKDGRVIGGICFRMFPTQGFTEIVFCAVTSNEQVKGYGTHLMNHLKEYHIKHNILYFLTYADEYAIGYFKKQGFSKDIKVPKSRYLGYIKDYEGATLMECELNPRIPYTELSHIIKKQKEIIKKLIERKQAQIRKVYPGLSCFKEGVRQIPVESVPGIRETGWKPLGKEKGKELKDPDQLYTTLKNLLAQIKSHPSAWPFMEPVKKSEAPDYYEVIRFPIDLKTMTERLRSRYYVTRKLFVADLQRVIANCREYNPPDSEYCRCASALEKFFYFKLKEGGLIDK
Put plainly: In vitro HAT assay with recombinant GCN5, histones and 14C acetyl-CoA. Type of data set: biochemical. On the procedure: as §1, §2, §3

Setting [1] is: 50 or 100 mg/kg orally, daily, 3 weeks.

T1 sequence (Q92831 whole entry, species assumed): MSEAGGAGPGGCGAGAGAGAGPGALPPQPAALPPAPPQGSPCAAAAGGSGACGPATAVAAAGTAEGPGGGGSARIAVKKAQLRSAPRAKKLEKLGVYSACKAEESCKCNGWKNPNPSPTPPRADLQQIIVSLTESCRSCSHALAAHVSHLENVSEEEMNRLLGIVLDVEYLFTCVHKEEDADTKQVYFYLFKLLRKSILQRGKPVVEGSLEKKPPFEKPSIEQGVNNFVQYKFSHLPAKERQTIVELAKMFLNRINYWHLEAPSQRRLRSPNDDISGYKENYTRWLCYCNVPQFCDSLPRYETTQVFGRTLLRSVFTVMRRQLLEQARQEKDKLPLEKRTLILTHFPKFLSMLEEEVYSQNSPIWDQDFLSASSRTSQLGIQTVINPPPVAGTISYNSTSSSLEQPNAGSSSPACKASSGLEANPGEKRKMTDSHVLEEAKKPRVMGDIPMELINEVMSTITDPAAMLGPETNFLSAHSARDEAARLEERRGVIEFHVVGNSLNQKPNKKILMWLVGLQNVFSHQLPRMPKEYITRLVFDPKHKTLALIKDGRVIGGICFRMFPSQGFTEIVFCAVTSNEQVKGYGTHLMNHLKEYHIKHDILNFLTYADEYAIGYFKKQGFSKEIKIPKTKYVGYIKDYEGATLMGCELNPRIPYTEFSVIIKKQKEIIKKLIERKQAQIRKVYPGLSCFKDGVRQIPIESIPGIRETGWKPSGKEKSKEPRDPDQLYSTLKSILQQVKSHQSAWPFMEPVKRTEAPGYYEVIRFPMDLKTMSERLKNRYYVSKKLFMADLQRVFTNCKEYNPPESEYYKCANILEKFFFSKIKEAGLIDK

Regarding `O=C(O)c1cc(-c2ccc(F)cc2F)ccc1O` [diflunisal], in the data set with Kasumi-1 cells (setting [1]), the “Effect on body weight” value is recorded as “minimal effects on body weight” and the Tumor volume result is recorded as “reduced tumor volumes in a dose-dependent manner”. The “Tumor size versus vehicle-treated controls” value in the data set with Kasumi-1 cells (after 3 weeks of treatment) was “significantly smaller”. The Tumors at sacrifice entry with Kasumi-1 cells (higher dose (100 mg/kg), after 3 weeks of treatment) is “most of the tumors had disappeared”.
Take `O=C(O)c1ccccc1O` [salicylate, salicylic acid]: the “Inhibition of PCAF acetyltransferase” value on PCAF is reported as “did not detectably inhibit”. Also, the “Inhibition of GCN5 acetyltransferase” value on GCN5 is listed as “did not detectably inhibit”.
